Data published in patent US20070032529A1, “Pyrazole compounds and their use as antidiabetes agents” (Japan Tobacco Inc., priority 2005, published 2007).

Assays:
[1] = molecular target: T1, recombinant human liver glycogen phosphorylase (Homo sapiens, UniProt P06737); experiment: Measuring liver glycogen phosphorylase activity (forward reaction system, NADPH absorbance at 340 nm); format: biochemical
T1 construct: made in house; host or cells: Sf9 insect cells (crude homogenate, diluted, used as the enzyme solution)
T1 sequence (P06737 1-847): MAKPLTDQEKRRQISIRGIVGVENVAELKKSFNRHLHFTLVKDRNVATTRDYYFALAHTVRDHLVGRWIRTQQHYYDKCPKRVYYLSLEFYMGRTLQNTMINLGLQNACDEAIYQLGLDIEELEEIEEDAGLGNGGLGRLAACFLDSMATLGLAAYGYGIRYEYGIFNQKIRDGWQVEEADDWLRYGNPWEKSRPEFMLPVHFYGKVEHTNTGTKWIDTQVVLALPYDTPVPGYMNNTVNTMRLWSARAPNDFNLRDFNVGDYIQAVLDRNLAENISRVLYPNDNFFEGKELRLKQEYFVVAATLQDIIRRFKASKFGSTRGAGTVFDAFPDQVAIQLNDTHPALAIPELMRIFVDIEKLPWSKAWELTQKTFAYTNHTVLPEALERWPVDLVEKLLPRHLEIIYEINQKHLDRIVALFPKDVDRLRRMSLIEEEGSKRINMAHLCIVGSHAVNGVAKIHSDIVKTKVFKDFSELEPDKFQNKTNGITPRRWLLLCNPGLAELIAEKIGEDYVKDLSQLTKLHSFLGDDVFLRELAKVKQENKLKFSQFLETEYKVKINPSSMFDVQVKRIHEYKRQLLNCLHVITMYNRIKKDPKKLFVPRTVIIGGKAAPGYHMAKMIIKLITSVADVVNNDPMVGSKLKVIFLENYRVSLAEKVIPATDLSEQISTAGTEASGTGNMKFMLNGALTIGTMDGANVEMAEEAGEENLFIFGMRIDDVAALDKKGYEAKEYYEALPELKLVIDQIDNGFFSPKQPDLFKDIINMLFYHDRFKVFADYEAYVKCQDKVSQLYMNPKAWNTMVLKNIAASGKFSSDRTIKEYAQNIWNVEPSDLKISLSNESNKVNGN
Outline: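 Compounds in 1% DMSO; activity taken as blank-subtracted 340 nm absorbance change across 75 min at room temperature. Forward reaction: glucose-1-phosphate released from glycogen converted by coupling enzymes, yielding NADPH; enzyme from recombinant Sf9 homogenate, reaction containing glucose, pH 6.8. IC50 from two-point linear interpolation.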

[2] = system: db/db mice; experiment: Measuring blood plasma glucose concentration in db/db mice (hypoglycemic effect); format: in vivo; design: key: ++: compounds exhibiting statistically significant hypoglycemic effect at a dose of 10 mg/kg or less; +: compounds exhibiting not significant but obvious hypoglycemic effect at a dose of 10 mg/kg; conditions: for vivo (hypoglycemic effect in db/db mice): db/db mice fasted 4 h, oral administration, plasma glucose 1 and 3 hours after administration, dose 10 mg/kg or less, Dunnett test vs solvent; for vivo (hypoglycemic effect): db/db mice, blood plasma glucose, dose of 10 mg/kg or less
Outline: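 db/db mice aged 9-18 weeks, grouped 5 or 8 per group matched on plasma glucose, fasted 4 h, then dosed orally with compound or 0.5% methylcellulose vehicle. Plasma glucose measured 1 and 3 h post-dose; each timepoint compared against vehicle by Dunnett test.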

[3] = enzyme inhibitory activity with respect to liver glycogen phosphorylase, class symbols
[4] = human liver glycogen phosphorylase, class symbol

| Compound | IC50 [1, 3] [nM] | IC50 [1, 4] [nM] | vivo (hypoglycemic effect in db/db mice) [2] | vivo (hypoglycemic effect) [2] | other results |
| --- | --- | --- | --- | --- | --- |
| COCCN(C(=O)c1cc(NC(=O)c2cc(F)c(F)cc2Cl)[nH]n1)c1ccc(C(=O)O)cc1 [Example 4-48] | < 100 |  | ++ |  |  |
| COc1ccc(CNC(=O)c2cc(NC(=O)c3cc(F)c(F)cc3Cl)[nH]n2)cn1 [Example 5-1] | < 100 |  |  |  | vivo (hypoglycemic effect in db/db mice) ([2]; 10 mg/kg): + |
| COc1ccc(CNC(=O)c2cc(NC(=O)c3cc(F)c(F)cc3C)[nH]n2)cn1 [Example 5-2] | < 100 |  | + |  |  |
| O=C(NN1CCOCC1)c1cccc(CNC(=O)c2cc(NC(=O)c3cc(F)c(F)cc3Cl)[nH]n2)c1 [Example 5-12] | < 100 |  | + |  |  |
| O=C(NCCN1CCOCC1)c1cc(CNC(=O)c2cc(NC(=O)c3cc(F)c(F)cc3Cl)[nH]n2)ccn1 [Example 5-13] | < 100 |  | + |  |  |
| O=C(NCc1ccnc(C(=O)NN2CCOCC2)c1)c1cc(NC(=O)c2cc(F)c(F)cc2Cl)[nH]n1 [Example 5-14] | < 100 |  | + |  |  |
| COc1ccc(CNC(=O)c2cc(NC(=O)c3cc(F)c(F)cc3Cl)[nH]n2)cn1.CS(=O)(=O)O [Example 5-15] | < 100 |  | + |  |  |
| COc1ccc(CNC(=O)c2cc(NC(=O)c3cc(F)c(F)cc3Cl)[nH]n2)cn1 [Example 5-16] | < 100 |  |  |  | vivo (hypoglycemic effect in db/db mice) ([2]; 10 mg/kg): + |
| O=C(NCc1ccc(N2CCCCC2)nc1)c1cc(NC(=O)c2cc(F)c(F)cc2Cl)[nH]n1 [Example 5-24] | < 100 |  | ++ |  |  |
| Cl.O=C(NCc1ccc(N2CCOCC2)nc1)c1cc(NC(=O)c2cc(F)c(F)cc2Cl)[nH]n1 [Example 5-25] | < 100 |  | ++ |  |  |
| CN(C)c1ccc(CNC(=O)c2cc(NC(=O)c3cc(F)c(F)cc3Cl)[nH]n2)cn1 [Example 5-27] | < 100 |  |  |  | vivo (hypoglycemic effect in db/db mice) ([2]; 10 mg/kg): ++ |
| CCN(CC)c1ccc(CNC(=O)c2cc(NC(=O)c3cc(F)c(F)cc3Cl)[nH]n2)cn1 [Example 5-29] | < 100 |  | ++ |  |  |
| CN(C)c1nc(Cl)ccc1CNC(=O)c1cc(NC(=O)c2cc(F)c(F)cc2Cl)[nH]n1 [Example 5-30] | < 100 |  | + |  |  |
| Cc1ncsc1CNC(=O)c1cc(NC(=O)c2cc(F)c(F)cc2Cl)[nH]n1.Cl [Example 5-32] | < 100 |  | + |  |  |
| Cc1nc(C)c(CNC(=O)c2cc(NC(=O)c3cc(F)c(F)cc3Cl)[nH]n2)s1.Cl [Example 5-33] | < 100 |  | + |  |  |
| Cc1cnc(CNC(=O)c2cc(NC(=O)c3cc(F)c(F)cc3Cl)[nH]n2)cn1 [Example 5-35] | < 100 |  | + |  |  |
| O=C(NCc1ccc(N2CCCC2)nc1)c1cc(NC(=O)c2cc(F)c(F)cc2Cl)[nH]n1 [Example 5-41] | < 100 |  | + |  |  |
| CC(OC(=O)OC1CCCCC1)OC(=O)c1ccc(N(C)C(=O)c2cc(NC(=O)c3cc(F)c(F)cc3Cl)[nH]n2)cc1 (stereo not shown) [Example 6-17] |  |  |  | + | inhibition at 0.1 µM ([1]; figure in brackets (100), read-out: IC50: % value given with (100)): 9.8% |

Now from value to molecule, other results behind:

| IC50 [1, 3] [nM] | IC50 [1, 4] [nM] | Compound | vivo (hypoglycemic effect in db/db mice) [2] | vivo (hypoglycemic effect) [2] | other results |
| --- | --- | --- | --- | --- | --- |
|  | < 100 | CN(C(=O)c1cc(NC(=O)c2cc(F)c(F)cc2Cl)[nH]n1)c1ccc(-c2nc(=O)o[nH]2)cc1 [Example 6-12] |  | + |  |
|  | < 100 | CN(C(=O)c1cc(NC(=O)c2cc(F)c(F)cc2Cl)[nH]n1)c1ccc(-c2nsc(=O)[nH]2)cc1 [Example 6-16] |  | + |  |
|  | < 100 | CN(C)C=Nc1ccccc1CNC(=O)c1cc(NC(=O)c2cc(F)c(F)cc2Cl)[nH]n1.Cl [Example 6-21] |  | ++ |  |
|  | < 100 | CN(C)C=Nc1cccc(CNC(=O)c2cc(NC(=O)c3cc(F)c(F)cc3Cl)[nH]n2)c1.Cl [Example 6-22] |  | + |  |
|  | < 100 | CN(C)C=Nc1ccc(CNC(=O)c2cc(NC(=O)c3cc(F)c(F)cc3Cl)[nH]n2)cc1.Cl [Example 6-23] |  | + |  |
|  | < 100 | N#Cc1ccc(CNC(=O)c2cc(NC(=O)c3cc(F)c(F)cc3Cl)[nH]n2)cc1 [Example 6-33] |  | + |  |
|  | < 100 | Cl.Nc1cccc(F)c1CNC(=O)c1cc(NC(=O)c2cc(F)c(F)cc2Cl)[nH]n1 [Example 6-39] |  | + |  |
|  | < 100 | N#Cc1cc(CNC(=O)c2cc(NC(=O)c3cc(F)c(F)cc3Cl)[nH]n2)ccn1 [Example 6-48] |  | ++ |  |
|  | < 100 | Cc1cc(F)c(F)cc1C(=O)Nc1cc(C(=O)N(C)c2ccc(C(=O)[O-])cc2)n[nH]1.[Na+] [Example 7-1] |  | + |  |
|  | < 100 | O=C(NCc1cccnc1)c1cc(NC(=O)c2cc(F)c(Cl)cc2Cl)[nH]n1 [Example 7-4] |  | ++ |  |
|  | < 100 | Cc1cc(F)c(F)cc1C(=O)Nc1cc(C(=O)NCc2cccnc2)n[nH]1 [Example 7-10] |  | ++ |  |
